Activity calls are given as the source filed them. How the calls were made is not given here.
Test system: CCRIS mutagenicity, Ames/micronucleus/aberration tests
Assay: CCRIS mutagenicity studies

Measured: mutagenic call

C=CCN=C=S
inactive: End Point: IN VITRO CHROMOSOMAL ABERRATIONS, Test System: CHINESE HAMSTER OVARY CELLS, Metabolic Activation: RAT. LIVER, S-9, AROCLOR 1254 inactive; negative | Test System: AMES SALMONELLA TYPHIMURIUM, Strain/Indicator: TA97, Metabolic Activation: NONE, Method: PREINCUBATION inactive; negative | Test System: AMES SALMONELLA TYPHIMURIUM, Strain/Indicator: TA97, Metabolic Activation: NONE, Method: PREINCUBATION (120 MIN) inactive; negative | Test System: AMES SALMONELLA TYPHIMURIUM, Strain/Indicator: TA97, Metabolic Activation: RAT, LIVER, S-9, AROCLOR 1254, Method: PREINCUBATION inactive; negative | Test System: AMES SALMONELLA TYPHIMURIUM, Strain/Indicator: TA97, Metabolic Activation: S-9, Method: PREINCUBATION (120 MIN) inactive; negative | Test System: AMES SALMONELLA TYPHIMURIUM, Strain/Indicator: TA98, Metabolic Activation: NONE, Method: PREINCUBATION (120 MIN) inactive; negative | Test System: AMES SALMONELLA TYPHIMURIUM, Strain/Indicator: TA98, Metabolic Activation: NONE, Method: STANDARD PLATE inactive; negative | Test System: AMES SALMONELLA TYPHIMURIUM, Strain/Indicator: TA98, Metabolic Activation: S-9, Method: PREINCUBATION (120 MIN) inactive; negative | Test System: AMES SALMONELLA TYPHIMURIUM, Strain/Indicator: TA98, Metabolic Activation: S-9, Method: STANDARD PLATE inactive; negative | Test System: AMES SALMONELLA TYPHIMURIUM, Strain/Indicator: TA100, Metabolic Activation: NONE, Method: PREINCUBATION (20, 60 OR 120 MIN) inactive; negative | Test System: AMES SALMONELLA TYPHIMURIUM, Strain/Indicator: TA100, Metabolic Activation: NONE, Method: PREINCUBATION (120 MIN) inactive; negative | Test System: AMES SALMONELLA TYPHIMURIUM, Strain/Indicator: TA100, Metabolic Activation: NONE, Method: STANDARD PLATE inactive; negative | Test System: AMES SALMONELLA TYPHIMURIUM, Strain/Indicator: TA100, Metabolic Activation: RAT, LIVER, S-9, AROCLOR 1254 (3.8 OR 11.4 MG PROTEIN/ML), Method: PREINCUBATION (20 MIN) inactive; negative | Test System: AMES SALMONELLA TYPHIMURIUM, Strain/Indicator: TA100, Metabolic Activation: RAT, LIVER, S-9, AROCLOR 1254 (11.4 MG PROTEIN/ML), Method: PREINCUBATION (60 MIN) inactive; negative | Test System: AMES SALMONELLA TYPHIMURIUM, Strain/Indicator: TA100, Metabolic Activation: S-9, Method: PREINCUBATION (120 MIN) inactive; negative | Test System: AMES SALMONELLA TYPHIMURIUM, Strain/Indicator: TA100, Metabolic Activation: S-9, Method: STANDARD PLATE inactive; negative | Test System: AMES SALMONELLA TYPHIMURIUM, Strain/Indicator: TA102, Metabolic Activation: NONE, Method: PREINCUBATION inactive; negative | Test System: AMES SALMONELLA TYPHIMURIUM, Strain/Indicator: TA102, Metabolic Activation: RAT, LIVER, S-9, AROCLOR 1254, Method: PREINCUBATION inactive; negative | Test System: UDS RAT HEPATOCYTES, Strain/Indicator: THY-INCORP, Metabolic Activation: IN VIVO, Method: AUTORADIOGRAPHY inactive; negative
active: End Point: IN VITRO CHROMOSOMAL ABERRATIONS, Test System: CHINESE HAMSTER OVARY CELLS, Metabolic Activation: NONE active; positive | End Point: IN VITRO CHROMOSOMAL ABERRATIONS, Test System: CHINESE HAMSTER OVARY CELLS, Metabolic Activation: RAT, LIVER, S-9, AROCLOR 1254 active; positive | Test System: AMES SALMONELLA TYPHIMURIUM, Strain/Indicator: TA98, Metabolic Activation: RAT LIVER S-9, AROCLOR 1254, Method: STANDARD PLATE active; positive | Test System: AMES SALMONELLA TYPHIMURIUM, Strain/Indicator: TA100, Metabolic Activation: RAT LIVER S-9, AROCLOR 1254, Method: STANDARD PLATE active; positive | Test System: AMES SALMONELLA TYPHIMURIUM, Strain/Indicator: TA100, Metabolic Activation: RAT, LIVER, S-9, AROCLOR 1254 (3.8 MG PROTEIN/ML), Method: PREINCUBATION (60 OR 120 MIN) active; positive | Test System: AMES SALMONELLA TYPHIMURIUM, Strain/Indicator: TA100, Metabolic Activation: RAT, LIVER, S-9, AROCLOR 1254 (11.4 MG PROTEIN/ML), Method: PREINCUBATION (120 MIN) active; positive

Source: PubChem BioAssay AID1259407 (Chemical Carcinogenesis Research Information System (CCRIS), 2018)
